In US20250002512A1, “NOVEL ANTI-[…] NE[…] AND THERAPEUTIC USES THEREOF” (MARVEL BIOTECHNOLOGY, priority 2021, published 2025):

What was measured:
[1] = target: brain derived neurotrophic factor (BDNF) receptor TrkB (Homo sapiens, UniProt Q16620); details: cited from Shen J et al.; cited from earlier work
male CD-1 mice = assay: forced swim test (FST), preclinical model of depression; type: in vivo; details: n=8/group, 50 mgs/kg orally once a day for seven days, FST on seventh day; for immobilization time (2-6 minutes): compared with fluoxetine 30 mg/kg, one-way ANOVA, Fisher LSD, FIG. 1; for latency to immobility: compared with vehicle control, FIG. 2
Protocol: The forced swim test (FST) is a widely accepted pre-clinical model to test the anti-depressive effects of molecules (Can A, Dao D T, Arad M, Terrillion C E, Piantadosi S C, Gould T D. The Mouse Forced Swim Test. J Vis Exp. 2012; (59): 3638. doi: 10.3791/3638).
Briefly, male CD-1 mice (approximately 25-35 g, n=8/group) were dosed orally once a day with either vehicle (2% aqueous DMSO, 0.5% carboxymethyl cellulose), compound 1 (50 mgs/kg in vehicle), compound 2 (50 mgs/kg in vehicle) or fluoxetine (aka. Prozac®, 30 mg/kg in vehicle) for seven days. Seven days is a comparatively short time to observe an anti-depressant effect with an orally dosed drug. On the seventh day, animals were tested in the FST and observed for abnormal behaviours (e.g. hallucinating).

brain derived neurotrophic factor (BDNF) receptor TrkB, sequence (Q16620 32-822): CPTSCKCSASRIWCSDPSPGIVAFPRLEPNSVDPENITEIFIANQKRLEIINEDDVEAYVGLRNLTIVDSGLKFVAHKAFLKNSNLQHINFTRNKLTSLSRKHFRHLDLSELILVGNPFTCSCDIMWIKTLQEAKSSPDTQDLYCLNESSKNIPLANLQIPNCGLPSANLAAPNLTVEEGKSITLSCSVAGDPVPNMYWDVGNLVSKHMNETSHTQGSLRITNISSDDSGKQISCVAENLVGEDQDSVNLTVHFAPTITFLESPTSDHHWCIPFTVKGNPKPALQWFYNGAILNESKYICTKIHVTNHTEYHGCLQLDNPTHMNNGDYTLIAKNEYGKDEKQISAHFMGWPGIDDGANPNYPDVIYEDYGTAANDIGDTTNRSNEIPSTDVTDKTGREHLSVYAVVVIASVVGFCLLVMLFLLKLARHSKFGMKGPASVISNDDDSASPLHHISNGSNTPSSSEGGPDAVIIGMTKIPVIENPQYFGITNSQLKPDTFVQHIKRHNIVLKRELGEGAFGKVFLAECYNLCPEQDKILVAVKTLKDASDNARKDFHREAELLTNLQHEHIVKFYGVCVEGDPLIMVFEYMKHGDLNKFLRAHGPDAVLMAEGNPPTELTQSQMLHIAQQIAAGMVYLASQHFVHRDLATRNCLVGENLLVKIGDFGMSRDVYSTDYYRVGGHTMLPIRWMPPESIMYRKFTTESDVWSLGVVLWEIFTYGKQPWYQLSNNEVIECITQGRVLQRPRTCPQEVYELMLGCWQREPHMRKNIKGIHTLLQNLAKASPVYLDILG

| Molecule | activation of BDNF receptor TrkB [1] | immobilization time (2-6 minutes) (male CD-1 mice) | latency to immobility (male CD-1 mice) |
| --- | --- | --- | --- |
| N-[2-(5-hydroxy-1H-indol-3-yl)ethyl]-2-oxopiperidine-3-carboxyamide [HIOC] | activate | – | – |
| O=C(CN1CCCC1=O)NCCc1c[nH]c2ccc(OP(=O)(O)O)cc12 [Compound 2, N-{2-[5-(dihydroxyphosphoryloxy)-1H-indol-3-yl]ethyl}(2-oxo-1-pyrrolidinyl) acetamide] | – | significantly better than fluoxetine | better than vehicle control |
| O=C1NCCCC1C(=O)NCCc1c[nH]c2ccc(OP(=O)(O)O)cc12 (centres unmarked) [Compound 1, N-{2-[5-(Dihydroxyphosphoryloxy)-1H-indol-3-yl]ethyl}-2-oxo-3-piperidinecarboxamide] | – | significantly better than fluoxetine | better than vehicle control |
